According to patent US20030108986A1, “Compositions and methods comprising G-protein coupled receptors” (Euroscreen, S.A., priority 2001, published 2003):
pEC50: −log10 of the molar value.

Assays:
[1] = target: T1, GPCRx11 (Homo sapiens, UniProt Q96LB1); experiment: aequorin-based assay of GPCRx11 activation by angiopeptin; assay type: cell-based
T1 construct: expressed in transfected cells; host or cells: CHO-K1
T1 sequence (Q96LB1 1-330): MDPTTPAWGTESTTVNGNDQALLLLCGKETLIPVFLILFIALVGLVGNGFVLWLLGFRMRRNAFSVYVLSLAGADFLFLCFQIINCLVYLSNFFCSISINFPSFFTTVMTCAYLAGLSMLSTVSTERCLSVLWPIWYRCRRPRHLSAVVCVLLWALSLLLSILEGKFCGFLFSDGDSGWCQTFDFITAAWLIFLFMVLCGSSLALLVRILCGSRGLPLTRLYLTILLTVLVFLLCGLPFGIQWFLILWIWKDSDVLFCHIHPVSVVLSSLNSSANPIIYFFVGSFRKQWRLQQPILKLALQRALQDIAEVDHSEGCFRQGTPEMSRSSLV
Procedure: As used herein, the term “aequorin-based assay” refers to an assay for GPCR activity that measures elevations in intracellular calcium induced by activated GPCRs, wherein intracellular calcium flux is measured by the luminescence of mitochondiral aequorin expressed in the cell.
The aequorin assay takes advantage of the responsiveness of mitochondrial apoaequorin to intracellular calcium release induced by the activation of GPCRs (Stables et al., 1997, Anal. Biochem. 252:115-126; Detheux et al., 2000, J. Exp. Med., 192 1501-1508; both of which are incorporated herein by reference). Briefly, GPCR-expressing clones are transfected to coexpress mitochondrial apoaequorin and Gα16. Cells are incubated with 5 μM Coelenterazine H (Molecular Probes) for 4 hours at room temperature, washed in DMEM-F12 culture medium and resuspended at a concentration of 0.5×10^6 cells/ml. Cells are then mixed with test agonist, or ligand molecules and light emission by the aequorin is recorded with a luminometer for 30 sec. Results are expressed as Relative Light Units (RLU). Controls include assays using membranes isolated from cells not expressing GPCRs (mock transfected), in order to exclude possible non-specific effects of the candidate compound. […]

[2] = target: GPCRx11 (human) (UniProt Q96LB1)

| EC50 (read off the curve); aequorin luminescence (RLU) in transfected CHO-K1 cells [2] [nM] | EC50; aequorin luminescence (RLU) in transfected CHO-K1 cells [2] [nM] | Molecule | ligand of the receptor GPCRx11 ([1]; GPCRx11 (SEQ ID NO: 12)) | pEC50 ([1]; GPCRx11 polypeptide bound by angiopeptin, transfected CHO-K1 cells (FIG. 16), read-out: EC50 of stimulation of mitochondrial aequorin fluorescence) |
| --- | --- | --- | --- | --- |
|  |  | CC(C)[C@@H]1NC(=O)[C@H](CCCCN)NC(=O)[C@@H](Cc2c[nH]c3ccccc23)NC(=O)[C@H](Cc2ccc(O)cc2)NC(=O)[C@@H](NC(=O)[C@H](N)Cc2ccc3ccccc3c2)CSSC[C@@H](C(=O)N[C@H](C(N)=O)[C@@H](C)O)NC1=O [angiopeptin] | natural ligand | ≥ 6.80 |
| 100 | 159 | angiopeptin (peptide) |  |  |
